In patent US9975896B2, “Inhibitors of transcription factors and uses thereof” (Dana-Farber Cancer Institute, Inc., priority 2013, dated 2018):
Like-named read-outs stand apart in the source and are kept apart here.

Legend:
[1] = test system: lung carcinoma cell line H2171; experiment: Cellular IC50 in lung carcinoma cell line H2171; assay type: cell-based
Experimental: Cells (e.g., BRD4 dependant cells) were counted and adjusted to 60,000 cells/mL. Using a Biotek EL406, 50 μL of the cells in media were distributed into 384 well white plates from Thermo. Immediately after plating, compounds of the invention in DMSO were distributed to plates. For large plate sets, cells were returned to a 37° C. incubator while not in use. The compounds were added to plates using a 100 nL 384 well pin transfer manifold on a Janus workstation. Stocks were arrayed in 10 point quadruplicate dose response in DMSO stock in 384-well Greiner compound plates. After addition of the compounds, plates were incubated for three days in a 37° C. incubator. Cell viability was read out using ATPlite from Perkin Elmer. Plates were removed from the incubator and brought to room temperature prior to use. Lyophilized powder was resuspended in lysis buffer and diluted 1:2 with DI water. 25 μL of this solution was added to each well using the Biotek liquid handler. Plates were sealed with adherent aluminum seals prior to vortexing and spinning down at 1000 g for 1 minute. Plates were incubated for 15 minutes at room temperature before signal was read on an Envision Plate Reader.

[2] = test system: BRD4-dependent Nut-Midline Carcinoma line 797; experiment: Cell viability (ATPlite) in BRD4 dependant cell line 797; conditions: Homo sapiens
BRD4 = BRD4 (Homo sapiens, UniProt O60885); experiment: In vitro AlphaScreen protein binding assay (competition with biotinylated JQ1)
Experimental: Assays were performed with minor modifications from the manufacturer's protocol (PerkinElmer, USA). All reagents were diluted in 50 mM HEPES, 150 mM NaCl, 0.1% w/v BSA, and 0.01% w/v Tween® 20 at pH 7.5 and allowed to equilibrate to room temperature prior to addition to plates. After addition of Alpha beads to master solutions, all subsequent steps were performed in low light conditions. […] After a 1000-rpm spin-down for 1 minute, 100 nL of the solutions of compounds of the invention in DMSO from stock plates were added by pin transfer using a Janus Workstation (PerkinElmer, USA). The streptavidin-coated donor beads (25 μg/ml final) were added as with previous solution in a 2×, 10 μL volume. Following this addition, the plates were sealed with foil to block light exposure and to prevent evaporation. The plates were spun down again at 1000 rpm for 1 minute. Next, the plates were incubated in the room with the plate reader (for temperature equilibration) for 1 hour prior to reading the assay. Signal is stable for up to 3 hours after donor bead addition.

[3] = Table 1, in vitro, AlphaScreen, inhibiting the activity of BRD4
[4] = read-out: BRD4--IC50, Table 6, biochemical
[5] = read-out: BRD4--IC50, Table 7, biochemical

Structure (SMILES)	IC50 ([1]; Homo sapiens, NCI-H2171, Table 2, cellular, lung carcinoma cell line H2171) [µM]	cellular activity in H2171 ([1]; text b616)	EC50 [2] [µM]	EC50 ([2]; read-out: 797--EC50 (μM)) [µM]	IC50 (BRD4; [3]) [µM]	IC50 (BRD4; [4]) [µM]	IC50 (BRD4; read-out: BRD4--IC50, Table 5, biochemical) [µM]	IC50 (BRD4; [5]) [µM]
Cc1noc(C)c1-c1ccc(-c2nc3ccccn3c2NCc2ccccc2)cc1 [UMB11, N-Benzyl-2-(4-(3,5-dimethylisoxazol-4-yl)phenyl)imidazo[1,2-α]pyridin-3-amine]	0.76	show cellular activity in H2171	–	–	–	–	–	–
Cc1noc(C)c1-c1ccc(-c2nc3ccc(Cl)cn3c2NCc2ccccc2)cc1 [UMB20, N-Benzyl-6-chloro-2-(4-(3,5-dimethylisoxazol-4-yl)phenyl)imidazo[1,2-α]pyridin-3-amine]	–	–	18.4	18.4	11.8	11.8	–	–
Cc1noc(C)c1-c1ccc(-c2nc3cnccn3c2NCc2ccccc2)cc1 [UMB21, N-Benzyl-2-(4-(3,5-dimethylisoxazol-4-yl)phenyl)imidazo[1,2-α]-pyrazin-3-amine]	–	–	49.1	49.1	18.8	18.8	–	–
Cc1noc2ccc(-c3ccc(-c4nc5ccccn5c4NCc4ccccc4)cc3)cc12 [UMB22]	–	–	12.4	–	68.3	–	–	–
COc1ccc(Nc2c(-c3ccc(-c4c(C)noc4C)cc3)nc3ccc(Cl)cn23)cc1 [UMB23, 6-Chloro-2-(4-(3,5-dimethylisoxazol-4-yl)phenyl)-N-(4-methoxy-phenyl)imidazo-[1,2-α]pyridine-3-amine]	–	–	20.7	20.7	31.5	31.5	–	–
COc1ccc(Nc2c(-c3ccc(-c4c(C)noc4C)cc3)nc3cc(OC)ncn23)cc1 [UMB24, 2-(4-(3,5-Dimethylisoxazol-4-yl)phenyl)-7-methoxy-N-(4-methoxy-phenyl)imidazo[1,2-c]pyrimidin-3-amine]	–	–	11.8	11.8	2.89	2.89	–	–
COc1ccc(Nc2c(-c3ccc(-c4c(C)noc4C)cc3)nc3cnccn23)cc1 [UMB25, 2-(4-(3,5-Dimethylisoxazol-4-yl)phenyl)-N-(4-methoxyphenyl)imidazo[1,2-a]pyrazin-3-amine]	–	–	32.8	32.8	–	7.86	–	–
Cc1noc(C)c1-c1cccc(-c2nc3ccccn3c2NCc2ccccc2)c1 [UMB26]	–	–	20.2	–	5.1	–	–	–
Cc1noc(C)c1-c1cccc(C2Nc3ccccc3NC3=C2C(=O)OC3)c1 (centres unmarked) [UMB27, 10-(3-(3,5-Dimethylisoxazol-4-yl)phenyl)-3,4,9,10-tetrahydro-1H-benzo[b]furo[3,4-e][1,4]diazepin-1-one]	–	–	207	> 100	2.05	–	2.05	–
Cc1noc(C)c1-c1ccc(-c2nc3ccccn3c2NC2CCCCC2)cc1 [UMB28, N-Cyclohexyl-2-(4-(3,5-dimethylisoxazol-4-yl)phenyl)imidazo[1,2-α]pyridin-3-amine]	–	–	5.07	5.07	0.904	0.904	–	–
Cc1noc(C)c1-c1ccc(-c2nc3ccccn3c2NC(C)(C)C)cc1 [UMB29, N-(t-Butyl)-2-(4-(3,5-dimethylisoxazol-4-yl)phenyl)imidazo[1,2-α]pyridin-3-amine]	–	–	2.04	2.04	0.479	0.479	–	–
COc1ccc(Nc2c(-c3ccc(-c4c(C)noc4C)cc3)nc3ccccn23)cc1 [UMB30, 2-(4-(3,5-Dimethylisoxazol-4-yl)phenyl)-N-(4-methoxyphenyl)imidazo-[1,2-α]pyridin-3-amine]	–	–	7.36	7.36	2.76	2.76	–	–
Cc1noc(C)c1-c1ccc(-c2nc3ccc(Cl)cn3c2NC(C)(C)C)cc1 [UMB31, N-(t-Butyl)-6-chloro-2-(4-(3,5-dimethylisoxazol-4-yl)phenyl)-imidazo-[1,2-α]pyridin-3-amine]	–	–	2.19	2.19	1.17	1.17	–	–
Cc1noc(C)c1-c1ccc(-c2nc3cnccn3c2NC(C)(C)C)cn1 [UMB53, N-(tert-butyl)-2-(6-(3,5-dimethylisoxazol-4-yl)pyridin-3-yl)imidazo[1,2-a]pyrazin-3-amine]	–	–	–	> 100	–	–	–	51.9
Cc1noc(C)c1-c1ccc(-c2nc3cnccn3c2NC(C)(C)C)nc1 [UMB54, N-(tert-butyl)-2-(5-(3,5-dimethylisoxazol-4-yl)pyridin-2-yl)imidazo[1,2-a]pyrazin-3-amine]	–	–	–	8.29	–	–	–	12.9
Cc1noc(C)c1-c1ccc(-c2nc3cnccn3c2NC(C)(C)C)cc1F [UMB55, N-(tert-butyl)-2-(4-(3,5-dimethylisoxazol-4-yl)-3-fluorophenyl)imidazo[1,2-a]pyrazin-3-amine]	–	–	–	12.8	–	–	–	13
Cc1noc(C)c1-c1ccc(-c2nc3cnccn3c2NC(C)C)cc1 [UMB57, 2-(4-(3,5-dimethylisoxazol-4-yl)phenyl)-N-isopropylimidazo[1,2-a]pyrazin-3-amine]	–	–	–	0.494	–	0.807	–	–
